These results are taken from patent publication US8236858B2, “Substituted aryl-indole compounds and their kynurenine/kynuramine-like metabolites as therapeutic agents” (Neurim Pharmaceuticals (1991) Ltd., priority 2006, dated 2012).

SMILES strings stand for the structures.

Broadly, the IC50 is the point on the concentration scale where inhibition reaches its midpoint. A high value points to weaker potency in that assay.

The test system of assay [1] is NMDA-activated currents. As to the kind of experiment: Electrophysiological characterisation of NMDA-activated currents in freshly isolated hippocampal neurones (whole-cell patch clamp). Type of assay: cell-based, Wistar rats. The following applies: for % Inhibition Peak Current / % Inhibition Steady State Current: 1 μM substance, 10 μM glycine, 300 μM L-aspartate, holding potential −70 mV, mean of at least 4 cells; for blocking activity on NMDA-activated currents (in words): summary of Table 3, 1 μM. Here is the method:
Isolation of hippocampal neurons: Wistar rats (12-14 days) were decapitated without anesthesia and the hippocampus was removed. It was manually cut into slices (0.2-0.4 mm), in a solution containing (mM): 150 NaCl; 5 KCL; 1.25 NaH2PO4; 2 CaCl2; 2 MgCl2; 26 NaHCO3; 20 glucose. Slices were preincubated in this solution for 30 min at room temperature. The enzymatic treatment proceeded in the same solution with lower Ca^2+ concentration (0.5 mm) containing 0.4 mg/ml protease from aspergillus oryzae. The incubation in the enzyme solution proceeded at 32° C. within 10 min. Slices were kept subsequently in enzyme-free solution containing normal Ca^2±concentration and used within 6-8 h for obtaining isolated neurons. Throughout the entire procedure the solutions were continuously saturated with a 95% O2 and 5% CO2 gas mixture to maintain pH of 7.4. For cell dissociation the slice was transferred into the extracellular solution containing (mM): 150 NaCl; 5 KCl; 2 CaCl2; 10 n-2-hydroxyethylpiperazine-n′-2-ethanesulphonic acid (Hepes); pH adjusted with NaOH to 7.4. Single cells were isolated from CA and CA3 zones of hippocampal slices by vibrodissociation method. […] After isolation they were usually suitable for the recording for 1-2 h.
Salines and chemicals: The contents of the extracellular solution was as follows (in mM): 130 NaCl, 5KCl, 2CaCl2, 20 n-2-hydroxyethylpiperazine-n′-2-ethansulfonic acid (Hepes); 0.1 μm TTX, 10 μm glycine, […] 1-aspartate; pH was adjusted with NaOH to 7.4.
The contents of the intracellular solution were as follows (in mM): 110 CsF, 20 Tris-HCl (pH=7.2). L-aspartate and glycine solutions were prepared on the day of experiment.
The tested substances were dissolved in DMSO.
Current recording and data analysis: The drug-containing solutions were applied by the fast “concentration clamp” method using “jumping table” set-up. The currents were recorded with patch clamp technique in the whole-cell configuration. Recording of the currents was performed using EPC-7 L/M patch-clamp amplifier.
NMDA-activated currents: The currents were filtered at 3 kHz (three-pole active Bessel filter) digitally sampled at the rate 6000 μs per point for NMDA activated currents. NMDA-induced transmembrane currents were measured in the presence of 10 μM glycine and 300 μM L-aspartate in the control and test solutions. The currents were recorded at holding potential −70 mV.
Calculations: The inhibition of current at 1 μM of the substance was averaged at least for 4 cells. The effect of substance was measured as the mean ratio I/Io where I was the current under the action of substance and Io was the current in control conditions.
Background: In patch-clamp work, channel activity is measured electrically.

Assay [2] relates to MPTP-treated mice. As to the kind of experiment: Anti-Parkinsonian activity in MPTP-treated mice with a sub threshold dose of L-DOPA (motor activity counts). The assay is classed as in vivo, C57 BL/6 mice. The following applies: for LOCOMOTION / REARING / TOTAL ACTIVITY: MPTP-treated mice (2×40 mg/kg s.c.), compound 3 mg/kg orally + 5 mg/kg L-Dopa s.c., counts with Vehicle (no MPTP) = 100%; for reversal of the motor deficits of MPTP-treated mice (in words): 3 mg/kg, combined with a sub-threshold (inactive) dose of L-Dopa. Here is the method:
Animals: six month old male C57 BL/6 mice, weighing 22-25 g were used. Following arrival at the laboratory, the mice were allowed to acclimatize for two weeks in a room with controlled temperature (21±1° C.), and a constant light-dark schedule (12 hr on/12 hr off, lights on between 06.00 and 18.00 hrs). Free access to food and water was maintained throughout. They were housed in groups of 12 animals and tested only during the hours of light (08.00-15.00 hrs). All testing was performed in a normally lighted room.
Behavioural measurements and apparatus: An automated device, consisting of macrolon rodent test cages (40×25×15 cm), each placed within two series of infra-red beams (at two different heights, one low and one high, 2 and 8 cm, respectively, above the surface of the sawdust, 1 cm deep), was used to measure spontaneous and/or drug-induced motor activity of 1-methyl 4-phenyl 1,2,3,6-tetrahydropyridine (MPTP) and control mice. The following parameters were measured: LOCOMOTION was measured by the low grid of infrared beams. Counts were registered only when the mouse in the horizontal plane, ambulating around the test-cage. REARING was registered throughout the time when at least one high level beam was interrupted, i.e. the number of counts registered was proportional to the amount of time spent rearing. TOTAL ACTIVITY was measured by a sensor (a pick-up similar to a gramophone needle, mounted on a lever with a counterweight) with which the test cage was constantly in contact. The sensor registered all types of vibration received from the test cage, such as those produced both by locomotion and rearing as well as shaking, tremors, scratching and grooming.
Behavioral measurements (locomotion, rearing and total activity): Twelve days after MPTP injections (2×40 mg/kg, s.c., 24 hr interval), the mice were administered orally with the different compounds at 3 mg/kg or vehicle (0.1% Tween-80 in 1% methylcellulose) and immediately thereafter placed in the activity test chambers and their motor behaviors were monitored for 60 min. After 60 min, the mice were injected with 5 mg/kg L-Dopa (s.c) and then replaced in the test chamber and activity measurements maintained for an additional 300 min.
Table 2 presents the locomotion, rearing and total activity counts of MPTP-treated and control mice administered either tested substances or vehicle administered with a sub threshold dose of L-Dopa.

Assay [3] deals with T1, GSK3β (Homo sapiens, UniProt P49841).
T1 construct: made in house; host or cells: insect Sf9 cells
T1 sequence (P49841 whole entry, species assumed): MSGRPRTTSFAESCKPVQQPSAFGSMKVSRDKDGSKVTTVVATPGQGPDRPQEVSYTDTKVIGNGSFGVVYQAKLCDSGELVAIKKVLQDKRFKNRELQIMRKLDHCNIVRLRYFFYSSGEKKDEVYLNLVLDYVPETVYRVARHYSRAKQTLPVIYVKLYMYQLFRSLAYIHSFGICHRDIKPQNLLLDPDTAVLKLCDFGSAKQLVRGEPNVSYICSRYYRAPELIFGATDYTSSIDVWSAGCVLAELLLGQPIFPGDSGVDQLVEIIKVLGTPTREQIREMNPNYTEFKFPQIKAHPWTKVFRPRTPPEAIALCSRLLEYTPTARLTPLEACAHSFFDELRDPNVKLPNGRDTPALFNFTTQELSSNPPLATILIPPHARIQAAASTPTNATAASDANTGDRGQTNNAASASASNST
Description: Evaluation of GSK3β activity: inhibition of purified GSK3β, [γ-32P]ATP / GS-2 peptide filter assay. The following applies: for IC50: purified GSK3β expressed in Sf9 cells, 15 μM ATP, GS-2 peptide substrate, 30 min at 30° C.; for inhibiting activity on GSK3β activity (in words): summary of Table 1. Type of assay: biochemical. Here is the method:
Compounds were evaluated for inhibition against purified GSK3β. GSK3β was expressed in and purified from insect Sf9 cells. Compounds (10 μM) were assayed; following a 1/100 dilution of the enzyme in 1 mg/ml BSA, 10 mM DTT, with 5 μl of 40 μM GS-2 peptide as a substrate, in a buffer, in the presence of 15 μM [γ-^32P]ATP (3000 Ci/mmol; 1 mCi/ml) in a final volume of 30 μl. After 30-min incubation at 30° C., 25-μl aliquots of supernatant were spotted onto 2.5×3 cm pieces of Whatman P81 phosphocellulose paper, and, 20 s later, the filters were washed five times (for at least 5 min each time) in a solution of 10 ml of phosphoric acid/liter of water. The wet filters were counted in the presence of 1 ml of scintillation fluid.

Turning to `Nc1ccccc1C(=O)CCNc1ccc([N+](=O)[O-])cc1Br` [2-(2-aminobenzoyl)-N-2-bromo-4-nitro-phenylethylamine], in assay [1], the “% Inhibition Peak Current” value turned out to be 86.23% and the “% Inhibition Steady State Current” value was 90.78%.
For `Nc1ccccc1C(=O)CCNc1ccc(Br)cc1[N+](=O)[O-]` [2-(2-aminobenzoyl)-N-2-nitro-4-bromo-phenylethylamine], in assay [1], the “% Inhibition Peak Current” value was 90.85% and the “% Inhibition Steady State Current” value is reported as 88.77%.
Turning to `N#Cc1ccc(NCCC(=O)c2ccccc2N)c([N+](=O)[O-])c1` [2-(2-aminobenzoyl)-N-2-nitro-4-cyano-phenylethylamine], in assay [2], the LOCOMOTION is recorded as 17%, the REARING is 29% and the “TOTAL ACTIVITY” value worked out at 46%. Also, in assay [3], the midpoint of inhibition, the IC50, lay at 29.3 µM and the “inhibiting activity on GSK3β activity (in words)” value (“inhibiting activity” for short) is “significant inhibiting activity”. Also, in assay [1], the “% Inhibition Peak Current” value was 85.95% and the “% Inhibition Steady State Current” value came to 87.24%.
For the compound `CS(=O)(=O)c1ccc(NCCC(=O)c2ccccc2N)c([N+](=O)[O-])c1` [2-(2-aminobenzoyl)-N-2-nitro-4-methylsulfonyl-phenylethylamine], in assay [2], the “reversal of the motor deficits of MPTP-treated mice (in words)” value (“reversal” below) was “significantly reversed the motor deficits”, the LOCOMOTION is reported as 54%, the REARING is reported as 100% and the “TOTAL ACTIVITY” value came out at 72%.
In the case of `Nc1ccccc1C(=O)CCNc1ccccc1[N+](=O)[O-]` [2-(2-aminobenzoyl)-N-2-nitrophenylethylamine], in assay [2], the LOCOMOTION is recorded as 17.6%, the REARING was determined as 25% and the “TOTAL ACTIVITY” value worked out at 45%. Also, the IC50 in assay [3] was 18.5 µM.
Regarding `COc1ccc2[nH]cc(CCNc3ccc([N+](=O)[O-])cc3C(=O)O)c2c1` [N-(2-Carboxy-4-nitrophenyl)-5-methoxytryptamine], in assay [1], the “% Inhibition Peak Current” value turned out to be 84% and the “% Inhibition Steady State Current” value amounted to 93.6%.
For the compound `O=C(O)c1cc([N+](=O)[O-])ccc1NCCc1c[nH]c2ccccc12` [N-(2-Carboxy-4-nitrophenyl)-tryptamine], in assay [2], the LOCOMOTION amounted to 16%, the REARING is on record as 25% and the “TOTAL ACTIVITY” value is 45%. Besides, in assay [3], the IC50 was 14.2 µM and the “inhibiting activity” value was “significant inhibiting activity”. Moreover, in assay [1], the “% Inhibition Peak Current” value is listed as 76.7%, the “% Inhibition Steady State Current” value is given as 70.4% and the “blocking activity on NMDA-activated currents (in words)” value (“blocking activity” for short) is listed as “significant blocking activity”.
Regarding `COc1ccc2[nH]cc(CCNc3ccccc3[N+](=O)[O-])c2c1` [N-(2-Nitrophenyl)-5-methoxytryptamine], in assay [2], the “reversal” value is listed as “significantly reversed the motor deficits”, the LOCOMOTION is listed as 44%, the REARING is 90% and the “TOTAL ACTIVITY” value was 73%. Besides, in assay [3], the IC50 was 14.1 µM and the “inhibiting activity” value is reported as “significant inhibiting activity”. Also, in assay [1], the “% Inhibition Peak Current” value is given as 78%, the “% Inhibition Steady State Current” value is 77.3% and the “blocking activity” value is given as “significant blocking activity”.
On to `O=[N+]([O-])c1ccccc1NCCc1c[nH]c2ccccc12` [N-(2-Nitrophenyl)-tryptamine], for which, in assay [2], the “reversal” value was “significantly reversed the motor deficits”, the LOCOMOTION came out at 53%, the REARING stood at 100% and the “TOTAL ACTIVITY” value was determined as 90%. In addition, in assay [3], the half-maximal inhibitory concentration (IC50) came out at 9.9 µM and the “inhibiting activity” value is “significant inhibiting activity”. For the same compound, in assay [1], the “% Inhibition Peak Current” value came to 90.93%, the “% Inhibition Steady State Current” value is 66.83% and the “blocking activity” value is recorded as “significant blocking activity”.
As to `COc1ccc2[nH]cc(CCNc3ccc([N+](=O)[O-])cc3Br)c2c1` [N-(2-bromo-4-nitrophenyl)-5-methoxytryptamine], in assay [1], the “% Inhibition Peak Current” value is 91.53% and the “% Inhibition Steady State Current” value is listed as 86.57%.
In the case of `COc1ccc2[nH]cc(CCNc3ccc([N+](=O)[O-])cc3C#N)c2c1` [N-(2-cyano-4-nitrophenyl)-5-methoxytryptamine], in assay [1], the “% Inhibition Peak Current” value came out at 96.21% and the “% Inhibition Steady State Current” value was determined as 88.21%.
On to `O=[N+]([O-])c1cc(Br)ccc1NCCc1c[nH]c2ccccc12` [N-(2-nitro-4-bromophenyl)-tryptamine], for which, in assay [1], the “% Inhibition Peak Current” value is 95.8%, the “% Inhibition Steady State Current” value is listed as 83% and the “blocking activity” value is listed as “significant blocking activity”.
For the compound `O=C(O)c1ccc(NCCc2c[nH]c3ccccc23)c([N+](=O)[O-])c1` [N-(4-Carboxy-2-nitrophenyl)-tryptamine], in assay [1], the “% Inhibition Peak Current” value is recorded as 101.6% and the “% Inhibition Steady State Current” value is reported as 92.84%.
Take `COc1ccc2[nH]cc(CCNc3ccc(Br)cc3[N+](=O)[O-])c2c1` [N-(4-bromo-2-nitrophenyl)-5-methoxytryptamine]: in assay [2], the LOCOMOTION was 16%, the REARING is recorded as 24% and the “TOTAL ACTIVITY” value amounted to 46%. Besides, in assay [1], the “% Inhibition Peak Current” value came out at 104.2%, the “% Inhibition Steady State Current” value was 78.18% and the “blocking activity” value is reported as “significant blocking activity”.
For `COc1ccc2[nH]cc(CCNc3ccc(S(C)(=O)=O)cc3[N+](=O)[O-])c2c1` [N-(4-methylsulfonyl-2-nitrophenyl)-5-methoxytryptamine], in assay [2], the “reversal” value was “significantly reversed the motor deficits”, the LOCOMOTION is 41%, the REARING is 74% and the “TOTAL ACTIVITY” value worked out at 70%.
